In patent publication US11697650B2, “Compounds having tetrahydroindolizine-1-carboxamide as BCL-2 inhibitors” (Eil Therapeutics, Inc., priority 2021, dated 2023):

What was measured:
[1] = molecular target: BCL-XL (Homo sapiens (Human), UniProt Q07817); assay: BCL-XL TR-FRET Assay (primary PPI inhibition); type: binding; conditions: 60 min incubation; read-out: BCLxL (IC50 code, BCL-XL TR-FRET)
Experimental: BCL-XL TR-FRET Assay (BPS Bioscience, #50223)
(§1) The following assay concentrations and times were used: 10.5 ng BCL-XL, 5 μl of 1:100 anti-His Tb-labeled donor, 5 μl of 1:100 Dye-labeled acceptor, 5 μl of 1:80 BCL-XL Peptide Ligand, and 2 μl of test compound, with 60 min incubation time. The results of the assay were read using a Clariostar (BMG Labtech) plate reader with the following parameters: TR FRET, 340ex/620 and 665em; 60 μsec Delay; and 500 μsec integration.

[2] = system: caspase-3 and -7 activities in RS4-11 cells; assay: Caspase-3/7 activation (Caspase-Glo 3/7) in RS4-11 cells; type: cell-based; conditions: Homo sapiens, 3.5 h incubation, read-out: Cas-3/7 (EC50 code)
Experimental: The Caspase-Glo 3/7 Assay is homogeneous, luminescent assay that measures caspase-3 and -7 activities. The assay provides a luminogenic caspase-3/7 substrate, which contains the tetrapeptide sequence DEVD, in a reagent optimized for caspase activity.
Incubate RS4-11 cells with varying concentrations of test compounds for 3.5 h in a humidified incubator at 37° C. and 5% CO2 and 30 min at r.t. Add 15 μl Caspase-Glo reagent to each well and incubate the plate for 30 min at r.t. Read on ClarioStar Plus instrument.
Promega Caspase-Glo (Promega, #8212); Frozen RS4-11 cells; 384-well white plate (Corning, #3570).
ClarioStar Plus; Biomek FX for liquid handling (Beckman Coulter).

[3] = system: RS4-11 cells; assay: Cell viability assay (CellTiter-Glo), RS4-11; type: cell-based; conditions: Homo sapiens, 72 h, 3 days, read-out: RS4-11 (CC50 code)
Experimental: (§2) Culture medium for HEK293—DMEM (PanEco, Cat #C420) was used. RPMI-1640 (PanEco, Cat #C363) was used for the rest of the cell lines.
(§3) Compounds were prepared as 200× stocks with serial dilution in 100% DMSO with a final concentration of 1×.
(§4) […] were dispersed in 40 μL aliquots in 384-well plates at a concentration of 2000 cells per well for HEK293 and at a concentration of 4000 cells per well for the rest of the cell lines using a robotic station Biomek (Beckman). Before adding compounds, the cells were incubated at 37° C. (HEK293 were incubated for a day before adding compounds).
(§5) A dilution plate was prepared by pouring 78 μL of the appropriate culture medium using a robotic station Biomek (Beckman). Sequentially, using a robotic station, 2 μL of substances were taken and added to 78 μL of culture medium (dilution of compounds 40×). 10 μL aliquots were taken and added to the plates of the cells (dilution of compounds 5×). The plates were incubated for 3 days at a temperature 37° C. After 3 days, 10 μL of CellTiter-Glo (Promega) was added to the cells and the luminescence was measured.

[4] = molecular target: BCL-2 (Homo sapiens (Human), UniProt P10415); assay: BCL-2 TR-FRET Assay (primary PPI inhibition); type: binding; conditions: 60 min incubation; read-out: BCL2 (IC50 code, BCL-2 TR-FRET)
Sequence of BCL-2 (P10415 whole entry): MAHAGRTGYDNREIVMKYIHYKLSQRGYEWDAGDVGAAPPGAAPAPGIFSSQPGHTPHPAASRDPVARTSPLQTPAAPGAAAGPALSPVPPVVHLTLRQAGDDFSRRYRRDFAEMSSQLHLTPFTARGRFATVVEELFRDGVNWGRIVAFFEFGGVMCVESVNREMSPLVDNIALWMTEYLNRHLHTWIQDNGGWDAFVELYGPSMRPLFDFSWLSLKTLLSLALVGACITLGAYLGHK
Experimental: BCL-2 TR-FRET Assay (BPS Bioscience, #50222)
as §1, with “used: 3” for “used: 10.5”, “ng BCL-2,” for “ng BCL-XL,”, “of 1:40 BCL-2” for “of 1:80 BCL-XL”, “2 ul” for “2 μl”

[5] = Cell viability assay (CellTiter-Glo), HEK293; type: cell-based; conditions: human, HEK293 cells, read-out: HEK293 (CC50 code)
Experimental: as §2, §3, §4, §5

[6] = system: MOLT-4 cells; assay: Cell viability assay (CellTiter-Glo), MOLT-4; type: cell-based; conditions: Homo sapiens, 72 h, 3 days, read-out: MOLT-4 (CC50 code)
Experimental: as §2, §3, §4, §5

Sequence of BCL-XL (Q07817 whole entry): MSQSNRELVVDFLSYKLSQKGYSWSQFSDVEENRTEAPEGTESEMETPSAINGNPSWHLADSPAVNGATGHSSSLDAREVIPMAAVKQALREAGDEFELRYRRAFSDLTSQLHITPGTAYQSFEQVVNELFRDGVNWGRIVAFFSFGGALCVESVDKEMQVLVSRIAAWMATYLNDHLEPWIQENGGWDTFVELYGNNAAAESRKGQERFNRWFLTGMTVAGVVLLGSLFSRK

| Structure (SMILES) | IC50 [1] | EC50 [2] | CC50 [3] | IC50 [4] | CC50 at 3 days [5] | CC50 [6] |
| --- | --- | --- | --- | --- | --- | --- |
| COc1c(C)cnc(CN(C(=O)c2cc(-c3cc4c(cc3C(=O)N3Cc5ccccc5C[C@H]3CN3CCOCC3)OCO4)n3c2CCCC3)c2ccc(O)cc2)c1C [Compound 23, N-(4-hydroxyphenyl)-N-[(4-methoxy-3,5-dimethylpyridin-2-yl)methyl]-3-(6-{[(3S)-3-(morpholin-4-ylmethyl)-3,4-dihydroisoquinolin-2(1H)-yl]carbonyl}-1,3-benzodioxol-5-yl)-5,6,7,8-tetrahydroindolizine-1-carboxamide] | > 4 µM | > 250 nM | > 200 nM | 10 to 50 nM | 10 to 25 µM | > 10000 nM |
| O=C(c1cc(-c2cc3c(cc2C(=O)N2Cc4ccccc4C[C@H]2CN2CCOCC2)OCO3)n2c1CCCC2)N(Cc1ccc(C(F)(F)F)cc1)c1ccc(O)cc1 [Compound 24, N-(4-hydroxyphenyl)-3-(6-{[(3S)-3-(morpholin-4-ylmethyl)-3,4-dihydroisoquinolin-2(1H)-yl]carbonyl}-1,3-benzodioxol-5-yl)-N-[4-(trifluoromethyl)benzyl]-5,6,7,8-tetrahydroindolizine-1-carboxamide] | > 4 µM | > 250 nM | > 200 nM | 10 to 50 nM | ≤ 10 µM | 2000 to 10000 nM |
| COc1ccccc1CN(C(=O)c1cc(-c2cc3c(cc2C(=O)N2Cc4ccccc4C[C@H]2CN2CCOCC2)OCO3)n2c1CCCC2)c1ccc(O)cc1 [Compound 31, N-(4-hydroxyphenyl)-N-(2-methoxybenzyl)-3-(6-{[(3S)-3-(morpholin-4-ylmethyl)-3,4-dihydroisoquinolin-2(1H)-yl]carbonyl}-1,3-benzodioxol-5-yl)-5,6,7,8-tetrahydroindolizine-1-carboxamide] | ≤ 2 µM | ≤ 100 nM | ≤ 100 nM | ≤ 5 nM | > 25 µM | ≤ 2000 nM |
| O=C(c1cc(-c2cc3c(cc2C(=O)N2Cc4ccccc4C[C@H]2CN2CCOCC2)OCO3)n2c1CCCC2)N(Cc1ccccc1Cl)c1ccc(O)cc1 [Compound 33, N-(2-chlorobenzyl)-N-(4-hydroxyphenyl)-3-(6-{[(3S)-3-(morpholin-4-ylmethyl)-3,4-dihydroisoquinolin-2(1H)-yl]carbonyl}-1,3-benzodioxol-5-yl)-5,6,7,8-tetrahydroindolizine-1-carboxamide] | ≤ 2 µM | ≤ 100 nM | ≤ 100 nM | ≤ 5 nM | 10 to 25 µM | ≤ 2000 nM |
| Cc1cccc(Cl)c1CN(C(=O)c1cc(-c2cc3c(cc2C(=O)N2Cc4ccccc4C[C@H]2CN2CCOCC2)OCO3)n2c1CCCC2)c1ccc(O)cc1 [Compound 34, N-(2-chloro-6-methylbenzyl)-N-(4-hydroxyphenyl)-3-(6-{[(3S)-3-(morpholin-4-ylmethyl)-3,4-dihydroisoquinolin-2(1H)-yl]carbonyl}-1,3-benzodioxol-5-yl)-5,6,7,8-tetrahydroindolizine-1-carboxamide] | > 4 µM | > 250 nM | > 200 nM | > 50 nM | > 25 µM | ≤ 2000 nM |
| O=C(c1cc(-c2cc3c(cc2C(=O)N2Cc4ccccc4C[C@H]2CN2CCOCC2)OCO3)n2c1CCCC2)N(Cc1c(Cl)ccc(F)c1F)c1ccc(O)cc1 [Compound 35, N-(6-chloro-2,3-difluorobenzyl)-N-(4-hydroxyphenyl)-3-(6-{[(3S)-3-(morpholin-4-ylmethyl)-3,4-dihydroisoquinolin-2(1H)-yl]carbonyl}-1,3-benzodioxol-5-yl)-5,6,7,8-tetrahydroindolizine-1-carboxamide] | > 4 µM | > 250 nM | > 200 nM | 10 to 50 nM | > 25 µM | ≤ 2000 nM |
